Measured values reported in ChEMBL document CHEMBL5465560, “Selectivity Literature for EUbOPEN Chemogenomic Library” (2024).
Values belong to the compound of their own block, whether it stands above or below them.

Key:
[1] = biological target: DNA-dependent protein kinase catalytic subunit (Homo sapiens) (UniProt P78527); test: Selectivity interaction (ActivX KiNativ screen (ex vivo kinase selectivity in human PBMCs)) EUB0001619a PRKDC; format: cell-based; conditions: PBMC, at 1 µM
Activated CDC42 kinase 1 = Activated CDC42 kinase 1 (Homo sapiens, UniProt Q07912); test: Selectivity interaction (ActivX KiNativ screen (ex vivo kinase selectivity in human PBMCs)) EUB0001619a TNK2; format: cell-based; conditions: PBMC, at 1 µM
Sequence of Activated CDC42 kinase 1 (Q07912 whole entry, looked up): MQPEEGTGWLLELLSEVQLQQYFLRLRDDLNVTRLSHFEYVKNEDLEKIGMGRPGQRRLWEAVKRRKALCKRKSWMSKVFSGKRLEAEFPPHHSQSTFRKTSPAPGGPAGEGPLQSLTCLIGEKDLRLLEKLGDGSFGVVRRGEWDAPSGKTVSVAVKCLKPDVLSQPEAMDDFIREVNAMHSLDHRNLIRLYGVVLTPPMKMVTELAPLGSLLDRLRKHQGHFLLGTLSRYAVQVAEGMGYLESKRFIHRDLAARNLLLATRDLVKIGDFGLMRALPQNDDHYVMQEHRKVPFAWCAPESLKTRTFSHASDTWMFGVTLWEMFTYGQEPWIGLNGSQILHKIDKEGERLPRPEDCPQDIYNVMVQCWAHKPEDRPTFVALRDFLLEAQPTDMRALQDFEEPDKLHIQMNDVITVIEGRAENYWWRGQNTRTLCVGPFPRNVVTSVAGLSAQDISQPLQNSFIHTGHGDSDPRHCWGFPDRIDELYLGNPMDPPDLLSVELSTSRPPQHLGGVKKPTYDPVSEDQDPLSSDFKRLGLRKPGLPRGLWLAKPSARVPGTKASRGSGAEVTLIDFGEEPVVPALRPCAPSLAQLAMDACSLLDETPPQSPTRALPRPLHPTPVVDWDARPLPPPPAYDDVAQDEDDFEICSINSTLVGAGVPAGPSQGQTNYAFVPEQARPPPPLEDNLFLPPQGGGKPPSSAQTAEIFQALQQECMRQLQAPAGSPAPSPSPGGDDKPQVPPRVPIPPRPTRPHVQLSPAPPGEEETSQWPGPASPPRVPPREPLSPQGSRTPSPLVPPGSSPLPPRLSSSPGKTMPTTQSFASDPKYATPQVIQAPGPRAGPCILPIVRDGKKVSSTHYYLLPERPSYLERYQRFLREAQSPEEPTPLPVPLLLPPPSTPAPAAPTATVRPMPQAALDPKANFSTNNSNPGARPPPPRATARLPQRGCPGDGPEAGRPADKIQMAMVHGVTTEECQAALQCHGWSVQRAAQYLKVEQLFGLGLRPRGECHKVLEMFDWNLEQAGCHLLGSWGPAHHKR

[2] = biological target: T1, Serine/threonine-protein kinase tousled-like 1 (Homo sapiens) (UniProt Q9UKI8); test: Selectivity interaction (ActivX KiNativ screen (ex vivo kinase selectivity in human PBMCs)) EUB0001619a TLK1; format: cell-based; conditions: PBMC, at 1 µM
T1 sequence (whole entry): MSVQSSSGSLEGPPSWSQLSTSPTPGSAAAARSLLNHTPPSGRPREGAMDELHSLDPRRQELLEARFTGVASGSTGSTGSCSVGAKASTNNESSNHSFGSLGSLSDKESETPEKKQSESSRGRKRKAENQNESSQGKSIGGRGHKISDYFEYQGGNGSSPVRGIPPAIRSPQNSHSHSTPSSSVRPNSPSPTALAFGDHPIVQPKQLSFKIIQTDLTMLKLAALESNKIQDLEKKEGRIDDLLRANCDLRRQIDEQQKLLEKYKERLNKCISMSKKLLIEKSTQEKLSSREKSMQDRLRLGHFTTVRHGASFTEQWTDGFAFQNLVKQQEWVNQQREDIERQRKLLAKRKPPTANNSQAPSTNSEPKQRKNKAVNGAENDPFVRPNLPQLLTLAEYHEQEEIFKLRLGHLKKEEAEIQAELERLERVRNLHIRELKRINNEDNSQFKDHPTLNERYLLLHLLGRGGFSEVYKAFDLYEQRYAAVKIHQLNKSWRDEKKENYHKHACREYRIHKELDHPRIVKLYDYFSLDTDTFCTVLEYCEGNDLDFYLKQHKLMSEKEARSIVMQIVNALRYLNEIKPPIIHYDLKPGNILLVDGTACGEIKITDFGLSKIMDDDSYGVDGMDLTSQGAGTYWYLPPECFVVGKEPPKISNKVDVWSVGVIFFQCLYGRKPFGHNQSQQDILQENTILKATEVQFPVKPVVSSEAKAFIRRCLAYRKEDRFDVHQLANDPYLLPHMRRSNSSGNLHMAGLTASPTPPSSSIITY

[3] = biological target: Ribosomal protein S6 kinase alpha-6 (Homo sapiens, UniProt Q9UK32); test: Selectivity interaction (KinomeScan (DiscoverX)) EUB0000045b RPS6KA6; conditions: at 1 µM
[4] = biological target: T2, Ephrin type-B receptor 2 (Homo sapiens) (UniProt P29323); test: Selectivity interaction (Upstate Kinase Profiler service (Millipore)) EUB0000056c EPHB2; conditions: at 1 µM
T2 sequence (whole entry): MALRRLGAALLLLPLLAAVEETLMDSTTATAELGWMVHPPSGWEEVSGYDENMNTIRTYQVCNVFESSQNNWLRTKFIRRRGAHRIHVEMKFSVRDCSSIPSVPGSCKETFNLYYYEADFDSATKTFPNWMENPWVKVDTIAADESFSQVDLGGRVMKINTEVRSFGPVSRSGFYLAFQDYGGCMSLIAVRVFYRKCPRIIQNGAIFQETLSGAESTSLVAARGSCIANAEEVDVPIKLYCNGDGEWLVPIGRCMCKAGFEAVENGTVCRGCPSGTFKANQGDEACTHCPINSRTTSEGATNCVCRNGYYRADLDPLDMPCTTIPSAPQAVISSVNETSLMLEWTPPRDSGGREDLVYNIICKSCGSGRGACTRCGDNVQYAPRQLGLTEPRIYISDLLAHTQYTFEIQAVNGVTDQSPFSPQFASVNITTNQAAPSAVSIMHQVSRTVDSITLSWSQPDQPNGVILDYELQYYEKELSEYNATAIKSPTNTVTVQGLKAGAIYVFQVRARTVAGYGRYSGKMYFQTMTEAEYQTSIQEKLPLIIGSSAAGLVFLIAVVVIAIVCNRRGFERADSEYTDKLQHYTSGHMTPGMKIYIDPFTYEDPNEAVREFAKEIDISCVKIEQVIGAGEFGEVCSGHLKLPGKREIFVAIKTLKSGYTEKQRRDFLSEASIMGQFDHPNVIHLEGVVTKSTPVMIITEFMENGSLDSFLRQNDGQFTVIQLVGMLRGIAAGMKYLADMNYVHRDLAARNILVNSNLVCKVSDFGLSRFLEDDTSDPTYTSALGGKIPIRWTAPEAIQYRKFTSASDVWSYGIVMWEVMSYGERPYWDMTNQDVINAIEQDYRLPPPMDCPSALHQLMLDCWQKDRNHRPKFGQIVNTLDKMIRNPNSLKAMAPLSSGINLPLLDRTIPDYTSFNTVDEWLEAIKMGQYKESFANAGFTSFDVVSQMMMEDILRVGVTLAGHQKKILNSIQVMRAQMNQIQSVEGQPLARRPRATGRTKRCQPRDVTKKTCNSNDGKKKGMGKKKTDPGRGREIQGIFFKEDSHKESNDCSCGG

[5] = biological target: STE20/SPS1-related proline-alanine-rich protein kinase (Homo sapiens) (UniProt Q9UEW8); test: Selectivity interaction (ActivX KiNativ screen (kinase selectivity in THP-1 cell lysates)) EUB0000639a STK39; format: subcellular; conditions: lysate
[6] = biological target: 1-phosphatidylinositol 3-phosphate 5-kinase (Homo sapiens) (UniProt Q9Y2I7); test: Selectivity interaction (KinomeScan (DiscoverX)) EUB0000229b PIKFYVE; conditions: at 10 µM

Sequence of DNA-dependent protein kinase catalytic subunit (Homo sapiens) (P78527 whole entry): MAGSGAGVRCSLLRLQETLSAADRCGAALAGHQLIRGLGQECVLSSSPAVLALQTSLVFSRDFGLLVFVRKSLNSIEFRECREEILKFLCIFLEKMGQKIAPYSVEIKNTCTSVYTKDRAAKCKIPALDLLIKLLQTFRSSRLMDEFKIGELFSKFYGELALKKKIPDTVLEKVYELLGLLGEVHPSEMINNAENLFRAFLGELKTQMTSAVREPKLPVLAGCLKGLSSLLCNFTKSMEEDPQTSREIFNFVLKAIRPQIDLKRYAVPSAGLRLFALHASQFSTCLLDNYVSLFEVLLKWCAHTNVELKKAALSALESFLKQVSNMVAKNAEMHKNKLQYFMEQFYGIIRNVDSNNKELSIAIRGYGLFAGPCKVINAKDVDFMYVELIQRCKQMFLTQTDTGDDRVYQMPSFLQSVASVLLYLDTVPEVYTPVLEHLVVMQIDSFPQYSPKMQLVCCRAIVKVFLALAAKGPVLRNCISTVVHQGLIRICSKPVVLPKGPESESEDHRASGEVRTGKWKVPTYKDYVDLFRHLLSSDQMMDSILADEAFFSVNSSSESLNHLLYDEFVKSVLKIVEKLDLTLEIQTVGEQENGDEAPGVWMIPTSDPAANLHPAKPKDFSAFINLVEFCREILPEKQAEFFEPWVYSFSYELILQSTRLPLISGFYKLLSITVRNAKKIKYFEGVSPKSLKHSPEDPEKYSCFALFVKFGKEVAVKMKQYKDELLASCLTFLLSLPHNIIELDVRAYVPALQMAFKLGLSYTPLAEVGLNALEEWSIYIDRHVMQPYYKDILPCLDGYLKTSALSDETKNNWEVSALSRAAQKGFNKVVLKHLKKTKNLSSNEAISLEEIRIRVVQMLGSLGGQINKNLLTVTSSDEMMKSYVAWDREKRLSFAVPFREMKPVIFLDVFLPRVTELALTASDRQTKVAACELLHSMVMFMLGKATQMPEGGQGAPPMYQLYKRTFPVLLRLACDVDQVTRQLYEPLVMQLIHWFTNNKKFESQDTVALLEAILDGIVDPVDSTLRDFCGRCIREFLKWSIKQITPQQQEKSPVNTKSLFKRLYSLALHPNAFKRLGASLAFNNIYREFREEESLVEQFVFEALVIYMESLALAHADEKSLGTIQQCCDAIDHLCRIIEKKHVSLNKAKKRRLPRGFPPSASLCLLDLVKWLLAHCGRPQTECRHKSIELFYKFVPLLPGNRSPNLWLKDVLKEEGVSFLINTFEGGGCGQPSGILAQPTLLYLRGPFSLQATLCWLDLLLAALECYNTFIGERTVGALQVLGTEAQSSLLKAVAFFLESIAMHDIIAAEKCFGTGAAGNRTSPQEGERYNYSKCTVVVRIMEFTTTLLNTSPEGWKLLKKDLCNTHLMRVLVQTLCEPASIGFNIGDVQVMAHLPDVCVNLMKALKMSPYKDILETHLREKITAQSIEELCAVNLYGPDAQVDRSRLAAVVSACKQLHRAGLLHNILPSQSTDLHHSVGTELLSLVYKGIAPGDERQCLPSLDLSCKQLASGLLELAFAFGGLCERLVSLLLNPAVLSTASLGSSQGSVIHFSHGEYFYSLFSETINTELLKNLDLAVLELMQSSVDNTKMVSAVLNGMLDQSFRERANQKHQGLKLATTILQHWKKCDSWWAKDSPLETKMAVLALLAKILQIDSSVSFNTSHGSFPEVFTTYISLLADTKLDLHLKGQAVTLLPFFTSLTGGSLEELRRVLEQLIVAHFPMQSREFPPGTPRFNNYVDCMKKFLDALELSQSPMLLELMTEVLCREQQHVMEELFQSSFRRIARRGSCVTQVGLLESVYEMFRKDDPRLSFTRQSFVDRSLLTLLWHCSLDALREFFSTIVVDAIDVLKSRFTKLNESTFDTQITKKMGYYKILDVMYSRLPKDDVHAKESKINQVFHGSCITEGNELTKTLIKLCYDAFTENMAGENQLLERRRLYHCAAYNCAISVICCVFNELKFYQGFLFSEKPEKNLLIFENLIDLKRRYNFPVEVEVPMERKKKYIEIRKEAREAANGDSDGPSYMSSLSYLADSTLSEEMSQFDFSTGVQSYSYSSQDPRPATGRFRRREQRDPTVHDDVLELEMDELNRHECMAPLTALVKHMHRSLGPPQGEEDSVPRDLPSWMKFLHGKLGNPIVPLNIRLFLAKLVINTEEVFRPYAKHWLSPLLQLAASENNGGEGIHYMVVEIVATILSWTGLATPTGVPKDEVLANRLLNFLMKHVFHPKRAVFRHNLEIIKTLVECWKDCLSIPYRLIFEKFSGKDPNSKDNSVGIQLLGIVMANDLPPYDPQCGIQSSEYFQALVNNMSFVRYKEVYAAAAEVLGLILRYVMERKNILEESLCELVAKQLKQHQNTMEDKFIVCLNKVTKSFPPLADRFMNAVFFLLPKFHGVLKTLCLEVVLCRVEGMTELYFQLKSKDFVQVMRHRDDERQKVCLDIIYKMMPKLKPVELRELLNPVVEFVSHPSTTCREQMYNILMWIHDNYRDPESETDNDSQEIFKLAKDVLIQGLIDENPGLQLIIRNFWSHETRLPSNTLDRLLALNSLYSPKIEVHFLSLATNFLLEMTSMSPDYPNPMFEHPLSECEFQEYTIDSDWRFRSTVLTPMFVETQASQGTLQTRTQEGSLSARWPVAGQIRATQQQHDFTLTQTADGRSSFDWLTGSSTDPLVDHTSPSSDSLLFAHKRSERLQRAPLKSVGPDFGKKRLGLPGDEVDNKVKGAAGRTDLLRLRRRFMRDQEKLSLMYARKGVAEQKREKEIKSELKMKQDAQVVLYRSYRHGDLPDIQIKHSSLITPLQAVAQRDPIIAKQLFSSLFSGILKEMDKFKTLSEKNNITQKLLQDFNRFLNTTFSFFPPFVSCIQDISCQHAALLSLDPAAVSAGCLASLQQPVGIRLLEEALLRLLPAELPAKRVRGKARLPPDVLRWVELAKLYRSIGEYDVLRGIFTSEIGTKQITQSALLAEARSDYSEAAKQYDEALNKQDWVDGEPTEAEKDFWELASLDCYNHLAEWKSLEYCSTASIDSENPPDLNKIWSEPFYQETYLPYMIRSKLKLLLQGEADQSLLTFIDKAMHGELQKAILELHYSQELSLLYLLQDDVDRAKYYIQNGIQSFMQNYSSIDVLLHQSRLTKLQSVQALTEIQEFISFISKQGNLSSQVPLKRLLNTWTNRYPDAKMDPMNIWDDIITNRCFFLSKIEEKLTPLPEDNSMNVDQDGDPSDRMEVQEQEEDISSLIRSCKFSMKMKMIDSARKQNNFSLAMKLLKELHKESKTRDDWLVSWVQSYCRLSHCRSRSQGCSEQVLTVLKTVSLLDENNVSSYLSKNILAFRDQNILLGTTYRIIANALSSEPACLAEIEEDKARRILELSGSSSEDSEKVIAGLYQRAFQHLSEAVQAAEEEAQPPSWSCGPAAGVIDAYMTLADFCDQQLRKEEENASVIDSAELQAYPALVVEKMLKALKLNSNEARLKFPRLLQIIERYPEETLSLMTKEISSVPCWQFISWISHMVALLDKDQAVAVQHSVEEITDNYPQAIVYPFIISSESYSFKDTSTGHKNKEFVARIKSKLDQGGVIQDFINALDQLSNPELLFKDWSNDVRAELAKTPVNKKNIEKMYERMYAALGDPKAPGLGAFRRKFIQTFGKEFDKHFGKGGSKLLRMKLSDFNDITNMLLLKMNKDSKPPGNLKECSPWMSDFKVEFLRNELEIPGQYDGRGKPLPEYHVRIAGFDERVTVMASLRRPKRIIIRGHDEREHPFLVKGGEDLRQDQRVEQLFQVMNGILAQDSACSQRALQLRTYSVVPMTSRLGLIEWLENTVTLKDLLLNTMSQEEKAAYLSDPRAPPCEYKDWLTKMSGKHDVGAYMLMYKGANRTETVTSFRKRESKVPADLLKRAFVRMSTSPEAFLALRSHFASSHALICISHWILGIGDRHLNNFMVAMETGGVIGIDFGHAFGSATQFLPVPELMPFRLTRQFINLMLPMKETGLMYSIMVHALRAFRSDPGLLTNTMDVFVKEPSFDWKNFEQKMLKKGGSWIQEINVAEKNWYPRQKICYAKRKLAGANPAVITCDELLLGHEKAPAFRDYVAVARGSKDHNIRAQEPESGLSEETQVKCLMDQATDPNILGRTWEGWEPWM

SMILES: N#Cc1cccc(-c2c[nH]c3ncnc(N4CCOCC4)c23)c1
- % of inhibition [1]: -2%
- % of inhibition (Activated CDC42 kinase 1): 8%
- % of inhibition [2]: 6%

SMILES: C=CC(=O)Nc1cc(-n2c(=O)ccc3cnc4ccc(-c5ccc(NS(C)(=O)=O)cc5)cc4c32)ccc1C
- % of control [3]: 56%

- % of inhibition [4]: -14%
SMILES: Cc1ccc(-c2ccc3c(ccc4sc5c(c43)NC[C@@H](C)NC5=O)n2)cn1

- % of inhibition ([5]; at 0.01 µM): 3.8%
- % of inhibition ([5]; at 0.04 µM): -1.3%
- % of inhibition ([5]; at 0.2 µM): 2.2%
- % of inhibition ([5]; at 1 µM): -9.4%
- % of inhibition ([5]; at 5 µM): 1.5%
SMILES: CC[C@@H]1[C@H](F)C(=O)N[C@@H]1COc1nccc2cc(C(N)=O)c(OC)cc12 [ZIMLOVISERTIB]

SMILES: COc1cc(N(C)c2ccnc3ccc(C(F)(F)F)cc23)cc(OC)c1OC
- % binding [6]: 46%
